Data set [1] relates to C. elegans infected with MRSA strain MW2. The data set is classed as in vivo. Particulars: for C. elegans animals surviving MRSA infection: concentrations above the MIC. On the procedure:
The C. elegans-MRSA liquid infection assay has been described (Rajamuthiah et al. Plos One. 2014; 9(2):e89189). In brief, 4,500 glp-4 (bn2); sek-1(km4) L1 hatchlings were grown on SK-HB101 agar plates for 52 hours at the restrictive temperature of 25° C. until animals became sterile young adults and later harvested with M9 buffer. S. aureus MW2 was grown overnight at 37° C. in TSB, first under aerobic conditions and later shifted to anaerobic growth conditions at 37° C. The infection assay was performed in standard 384-well assay plates, in the presence of the compound being tested or 1% dimethyl sulfoxide (DMSO) as a control. Bacteria were added to the wells at a final OD600 of 0.06, followed by the use of a Complex Object Parametric Analyzer and Sorter (COPAS) large particle sorter (Union Biometrica, Holliston, Mass., USA) to transfer 15 adult worms to each well of an assay plate. After 5 days of incubation in a humidified chamber at 25° C., the bacteria and other debris were washed from the wells with a microplate washer and the worms were stained with the vital dye Sytox Orange (Life Technologies). After overnight incubation at 25° C. in a humidified chamber, the plates were imaged using an Image Xpress Micro automated microscope (Molecular Devices, Sunnyvale, Calif., USA), capturing both transmitted light and TRITC (535 nm excitation, 610 nm emission) fluorescent images with a 2× objective. The images from the infection assay were processed using the open source image analysis software CellProfiler and analysis modules as described previously. The ratio of Sytox worm area to bright field worm area, and the resultant percentage survival data, is calculated by the software for each well of the assay plates. The assay was performed in triplicate comparing the survival of worms at various concentrations of drugs.
Killing assays were carried out as described in Methods using S. aureus MRSA MW2 and 10 μg/ml retinoids, 10 μg/ml vancomycin (positive control), or 1% DMSO (negative control) at 25° C. for 5 days. Data are representative of three independent experiments. (B) Chemical structures of synthetic retinoids. (C) Growth of MRSA strain MW2 exposed to the indicated concentrations of compounds was quantified by measuring OD600 after 18 h in tryptic soy broth (TSB). (D) C. elegans infected with MRSA strain MW2 was treated with indicated concentrations of compounds. Percent survival of C. elegans was normalized to C. elegans treated with DMSO. (E-F) MRSA persisters prepared as described in Methods were treated with the indicated concentrations of each retinoid. Viability was measured by serial dilution and plating on TSA plates. The data points on the x-axis are below the level of detection (2×10^2 CFU/ml). (E,F) Results are shown as means±s.d.; n=3.

The test system of a further data set is E. aerogenes ATCC 13048. The data set is described as follows: MIC, broth microdilution. Format: cell-based, Enterobacter aerogenes. Particulars: Klebsiella aerogenes, ATCC13048; E. aerogenes ATCC 13048; read-out: Minimum inhibitory concentration. An outline of the steps: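 MIC by CLSI broth microdilution (M07-A8) in MH broth; E. aerogenes, K. pneumoniae and A. baumannii pre-grown in LB, E. faecium in BHI, at 37° C. Inoculum at initial OD600 0.03, incubated 18 hrs at 35° C., growth read as absorbance at 595 nm.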
(In broth dilution the organism is exposed to a series of concentrations in liquid medium.)

Data set [2] concerns primary human hepatocytes. The data set is described as follows: Hepatotoxicity (WST-1). Particulars: at 32 μg/ml, 24 h. Format: cell-based. On the procedure: Hepatotoxicity. Cryopreserved primary human hepatocytes were purchased from Cell Resource Core at Massachusetts General Hospital (Boston, Mass., USA). The hepatocytes were cultured in collagen sandwiched configuration in 24-well plates, as described previously (See, e.g., Dunn, J. C., et al. Hepatocyte function and extracellular matrix geometry: long-term culture in a sandwich configuration. FASEB J. 3, 174-177 (1989); Dunn, J. C., et al. Hepatocytes in collagen sandwich: evidence for transcriptional and translational regulation. J. Cell Biol. 116, 1043-1053 (1992); and Sharma, N. S. et al. Metabolic profiling based quantitative evaluation of hepatocellular metabolism in presence of adipocyte derived extracellular matrix. PLoS ONE 6, e20137 (2011)). Briefly, 0.4×10^6 live cells were seeded in 24-well plates coated with rat tail collagen type I. In order for cells to attach onto collagen gel, the 24-well plates were incubated in a humidified 5% CO2 incubator at 37° C. for 4 hours. The cells were washed and then cultured in 0.5 ml standard hepatocyte culture medium consisting of pre-warmed DMEM media supplemented with 10% FBS, 0.5 U/ml insulin, 14 ng/ml glucagon, 20 ng/ml EGF, 7.5 μg/ml hydrocortisone and 200 U/ml penicillin-streptomycin. The cell cultures were incubated in a humidified 5% CO2 incubator at 37° C. At 24 h after seeding, a top layer of collagen gel was deposited on the hepatocytes attached to the bottom collagen layer and incubated for another 24 h, then the hepatocytes were treated with a range of concentrations of retinoids for 24 h. […] WST-1 reduction was measured at absorbance 450 nm. The percent […] relative to that of the no-treatment control was calculated. […]
0.4×10^6 primary human hepatocytes cultured in a collagen gel sandwich system were treated with a range of concentration of the synthetic retinoids for 24 h. Cell viability was calculated based on the absorbance readings at 450 nm at 4 h after adding WST-1 using the following equation: % viability=(Abssample−Absblank)/(Absnon-treated−Absblank)×100. […]
(In general: Tetrazolium dyes change colour on reduction, which living cells bring about.)

A further data set has as its system P. aeruginosa. The data set is described as follows: MIC, broth microdilution. Format: cell-based, Pseudomonas aeruginosa. Particulars: Pseudomonas aeruginosa; P. aeruginosa PA14; read-out: Minimum inhibitory concentration.

For `O=C(O)c1ccc2cc(-c3ccc(O)c(C45CC6CC(CC(C6)C4)C5)c3)ccc2c1` [CD437, 6-(4-hydroxy-3-tricyclo[3.3.1.13,7]dec-1-ylphenyl)-2-naphthalenecarboxylic acid], the “C. elegans animals surviving MRSA infection” value in data set [1] amounted to 100%. The MIC with E. aerogenes ATCC 13048 and in the data set with P. aeruginosa was more than 64 µg/mL throughout. The “toxicity to primary human hepatocytes” value in data set [2] was “did not cause significant toxicity”.

Turning to `O=C(O)c1ccc(-c2ccc3cc(O)c(C45CC6CC(CC(C6)C4)C5)cc3c2)cc1` [CD1530, 4-(6-hydroxy-7-tricyclo[3.3.1.13,7]dec-1-yl-2-naphthalenyl)-benzoic acid], the “C. elegans animals surviving MRSA infection” value in data set [1] stood at 100%. Moreover, in data set [1] (up to 50 μg/ml), the “toxicity to C. elegans” value is “nontoxic”. Further, the MIC in the data set with E. aerogenes ATCC 13048 and with P. aeruginosa was more than 64 µg/mL throughout. In data set [2], the “toxicity to primary human hepatocytes” value is “did not cause significant toxicity”.

For `O=C(O)/C=C/c1ccc(-c2ccc(O)c(C34CC5CC(CC(C5)C3)C4)c2)cc1` [Adarotene, (2E)-3-(4′-Hydroxy-3′-tricyclo[3.3.1.13,7]dec-1-yl[1,1′-biphenyl]-4-yl)-2-propenoic acid], the “rescue of C. elegans from MRSA infection” value in data set [1] (result in words) is recorded as “rescued”. Further, the MIC in the data set on E. aerogenes ATCC 13048 and with P. aeruginosa was more than 64 µg/mL each time. The “toxicity to primary human hepatocytes” value in data set [2] is given as “did not cause significant toxicity”.
